This passage reports IC50 results from patent publication EP0942906B1, “COMPOUNDS USEFUL FOR INHIBITION OF FARNESYL PROTEIN TRANSFERASE” (SCHERING CORPORATION, priority 1996, dated 1998).

Where two headings read alike, the source gives them in different places. Some results are limits rather than exact numbers.

Details in all cases: range stated for the listed group of compounds
One assay deals with COS Cell. The assay can be described thus: COS Cell IC50 (Cell-Based Assay, procedure of WO 95/10516). On the procedure:
(§1) FPT IC50 (inhibition of farnesyl protein transferase, in vitro enzyme assay) and COS Cell IC50 (Cell-Based Assay) were determined following the assay procedures described in WO 95/10516, published April 20, 1995. GGPT IC50 (inhibition of geranylgeranyl protein transferase, in vitro enzyme assay), Cell Mat Assay, and anti-tumor activity (in vivo anti-tumor studies) could be determined by the assay procedures described in WO 95/10516.

The test system of another assay is Human tumor cells. Description: Soft Agar Assay (anchorage-independent growth, colony count after MTT staining). It counts as cell-based. The procedure: Anchorage-independent growth is a characteristic of tumorigenic cell lines. Human tumor cells are suspended in growth medium containing 0.3% agarose and an indicated concentration of a farnesyl transferase inhibitor. The solution is overlayed onto growth medium solidified with 0.6% agarose containing the same concentration of farnesyl transferase inhibitor as the top layer. After the top layer is solidified, plates are incubated for 10-16 days at 37°C under 5% CO2 to allow colony outgrowth. After incubation, the colonies are stained by overlaying the agar with a solution of MTT (3-[4,5-dimethylthiazol-2-yl]-2.5-diphenyltetrazolium bromide, Thiazolyl blue) (1 mg/mL in PBS). Colonies can be counted and the IC50's can be determined.

In assay [1] the target is farnesyl protein transferase (Homo sapiens, UniProt P49354+P49356). The assay can be described thus: FPT IC50, inhibition of farnesyl protein transferase, in vitro enzyme assay (procedure of WO 95/10516). The assay is classed as biochemical. On the procedure:
as §1

[2] abbreviates: ras form not stated, read-out: FPT IC50.
Where [3] appears, read: H-ras, read-out: FPT IC50 (H-ras).
Where [4] appears, read: k-ras, read-out: FPT IC50 (k-ras).

farnesyl protein transferase, sequence (P49356 whole entry, one chain of several): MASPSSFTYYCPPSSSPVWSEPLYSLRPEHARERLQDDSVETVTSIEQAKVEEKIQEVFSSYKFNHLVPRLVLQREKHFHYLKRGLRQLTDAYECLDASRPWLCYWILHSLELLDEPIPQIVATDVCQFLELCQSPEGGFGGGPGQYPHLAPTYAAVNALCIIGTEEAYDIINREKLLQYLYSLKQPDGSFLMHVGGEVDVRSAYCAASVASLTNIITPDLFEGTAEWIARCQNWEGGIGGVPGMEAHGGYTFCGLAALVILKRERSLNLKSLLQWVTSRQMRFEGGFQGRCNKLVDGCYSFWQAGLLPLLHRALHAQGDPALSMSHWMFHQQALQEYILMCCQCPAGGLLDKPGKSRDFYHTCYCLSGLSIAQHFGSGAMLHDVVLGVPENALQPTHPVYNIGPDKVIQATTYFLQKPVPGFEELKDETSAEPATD

Turning to `CC(=O)C(=O)N1CCC(CC(=O)N2CCC([C@H]3c4ncc(Br)cc4CCc4cc(Cl)cc(Br)c43)CC2)CC1` [Compound 72.0-B], the IC50 with COS Cell (read-out: Cos Cell) is ≥ 0.009 µM; in the assay with Human tumor cells, ≥ 0.0195 µM; in assay [1] (setting [2]), 0.0007 to 0.018 µM.

Consider `O=C(CON=Cc1ccccc1O)N1CCC(CC(=O)N2CCC(C3c4ncc(Br)cc4CCc4cc(Cl)cc(Br)c43)CC2)CC1` (centres unmarked) [Compound 95.0-B], for which the IC50 was ≥ 0.009 µM in the assay with COS Cell (read-out: Cos Cell), ≥ 0.0195 µM in the assay with Human tumor cells and 0.0007 to 0.018 µM in assay [1] (setting [2]).

With `CC(C)=NOCCC(=O)N1CCC(CC(=O)N2CCC([C@H]3c4ncc(Br)cc4CCc4cc(Cl)cc(Br)c43)CC2)CC1` [Compound 23.0-B], the IC50 is ≥ 0.009 µM in the assay on COS Cell (read-out: Cos Cell), ≥ 0.0195 µM in the assay on Human tumor cells, 0.002 to 0.0317 µM in assay [1] (setting [3]) and 0.0007 to 0.018 µM in assay [1] (setting [2]).

For `CCOC(=O)c1c(C)ncn1CC(=O)N1CCC(CC(=O)N2CCC([C@H]3c4ncc(Br)cc4CCc4cc(Cl)cc(Br)c43)CC2)CC1` [Compound 53.0-B], the figures for the IC50 (with COS Cell (read-out: Cos Cell); with Human tumor cells; in assay [1] (setting [2])) were ≥ 0.009 µM, ≥ 0.0195 µM and 0.0007 to 0.018 µM, respectively.

As to `O=C(CC1CCN(C(=O)CN2CCCCC2)CC1)N1CCC([C@H]2c3ncc(Br)cc3CCc3cc(Cl)cc(Br)c32)CC1` [Compound 75.0-B], the results for the IC50 (in the assay on COS Cell (read-out: Cos Cell); in the assay on Human tumor cells; in assay [1] (setting [2])) were ≥ 0.009 µM, ≥ 0.0195 µM and 0.0007 to 0.018 µM, respectively.

On to `O=C(O)C[C@H](O)CC(=O)N1CCC(CC(=O)N2CCC([C@H]3c4ncc(Br)cc4CCc4cc(Cl)cc(Br)c43)CC2)CC1` [Compound 74.0-B], for which the IC50 was ≥ 0.009 µM in the assay with COS Cell (read-out: Cos Cell), ≥ 0.0195 µM in the assay on Human tumor cells and 0.0007 to 0.018 µM in assay [1] (setting [2]).

With `O=C(O)CCC(=O)N1CCC(CC(=O)N2CCC([C@H]3c4ncc(Br)cc4CCc4cc(Cl)cc(Br)c43)CC2)CC1` [Compound 18.0-B], the IC50 with COS Cell (read-out: Cos Cell) was ≥ 0.009 µM; in the assay with Human tumor cells, ≥ 0.0195 µM; in assay [1] (setting [3]) it was 0.002 to 0.0317 µM; in assay [1] (setting [4]) it was 0.0145 to 0.0712 µM; in assay [1] (setting [2]), 0.0007 to 0.018 µM.

Turning to `O=C(C(=O)N1CCC(CC(=O)N2CCC([C@H]3c4ncc(Br)cc4CCc4cc(Cl)cc(Br)c43)CC2)CC1)c1cccs1` [Compound 81.0-B], the IC50 in the assay with COS Cell (read-out: Cos Cell) was ≥ 0.009 µM; with Human tumor cells, ≥ 0.0195 µM; in assay [1] (setting [2]), 0.0007 to 0.018 µM.

Consider `NCC(=O)N1CCC(CC(=O)N2CCC([C@H]3c4ncc(Br)cc4CCc4cc(Cl)cc(Br)c43)CC2)CC1` [Compound 16.0], for which the IC50 was ≥ 0.009 µM in the assay on COS Cell (read-out: Cos Cell) and ≥ 0.0195 µM in the assay with Human tumor cells.

`O=C(CC1CCN(C(=O)CN2CCOCC2)CC1)N1CCC([C@H]2c3ncc(Br)cc3CCc3cc(Cl)cc(Br)c32)CC1` [Compound 13.0]: the IC50 was 0.01 to 0.7 µM in the assay on COS Cell (read-out: Cos Cell IC50) and 0.002 to 0.0317 µM in assay [1] (setting [3]).

Consider `O=C(CC1CCN(C(=O)CN2CCS(=O)(=O)CC2)CC1)N1CCC(C2c3ncc(Br)cc3CCc3cc(Cl)cc(Br)c32)CC1` (single isomer, unassigned; (+)) [Compound 14.1], for which the IC50 is 0.01 to 0.7 µM with COS Cell (read-out: Cos Cell IC50) and 0.002 to 0.0317 µM in assay [1] (setting [3]).

In the case of `O=C(CCN1CCCCC1)N1CCC(CC(=O)N2CCC([C@H]3c4ncc(Br)cc4CCc4cc(Cl)cc(Br)c43)CC2)CC1` [Compound 7.0-B], the IC50 is ≥ 0.009 µM in the assay with COS Cell (read-out: Cos Cell), 0.0145 to 0.0712 µM in assay [1] (setting [4]) and 0.0007 to 0.018 µM in assay [1] (setting [2]).

For the molecule `COC(=O)CCCC(=O)N1CCC(CC(=O)N2CCC(C3c4ncc(Br)cc4CCc4cc(Cl)cc(Br)c43)CC2)CC1` (centres unmarked) [Compound 15.1], the IC50 in the assay on COS Cell (read-out: Cos Cell IC50) is 0.01 to 0.7 µM; in assay [1] (setting [3]) it was 0.002 to 0.0317 µM.

Turning to `CC(C)(C)OC(=O)N[C@@H](Cc1c[nH]cn1)C(=O)N1CCC(CC(=O)N2CCC([C@H]3c4ncc(Br)cc4CCc4cc(Cl)cc(Br)c43)CC2)CC1` [Compound 6.0], the IC50 is ≥ 0.009 µM with COS Cell (read-out: Cos Cell), 0.01 to 0.7 µM in the assay on COS Cell (read-out: Cos Cell IC50), 0.002 to 0.0317 µM in assay [1] (setting [3]) and 0.0145 to 0.0712 µM in assay [1] (setting [4]).

On to `CS(=O)(=O)NCC(=O)N1CCC(CC(=O)N2CCC([C@H]3c4ncc(Br)cc4CCc4cc(Cl)cc(Br)c43)CC2)CC1` [Compound 11.0], for which the results for the IC50 (with COS Cell (read-out: Cos Cell IC50); in assay [1] (setting [3])) were 0.01 to 0.7 µM and 0.002 to 0.0317 µM, respectively.
